# From patent publication US20100298141A1, “SUBSTITUTED PYRIDINE N-OXIDE HERBICIDES” (E. I. DU PONT DE NEMOURS AND COMPANY, priority 2007, published 2010)
# Experiments:
# [1] = system: kochia; assay: Test F preemergence test; format: in vivo, Kochia scoparia; conditions: scale 0 to 100; for Kochia plant response rating: 62 g ai/ha
# Outline: (§1)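 Greenhouse screen: test chemical in surfactant-containing non-phytotoxic solvent applied preemergence to sown seeds or postemergence to sugarcane plants; after 14 to 21 days each species scored visually versus controls.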
# [2] = system: mustard; assay: Test F preemergence test; format: in vivo, Brassica nigra; conditions: scale 0 to 100; for Black Mustard plant response rating: 62 g ai/ha
# Outline: as §1
# [3] = system: quackgrass; assay: Test F preemergence test; format: in vivo, Elytrigia repens; conditions: scale 0 to 100; for Quackgrass plant response rating: 62 g ai/ha
# Outline: as §1
# [4] = system: green foxtail; assay: Test F preemergence test; format: in vivo, Setaria viridis; conditions: scale 0 to 100; for Foxtail, Green plant response rating: 62 g ai/ha
# Outline: as §1
# [5] = system: Goosegrass; assay: Test C pre-/postemergence test; format: in vivo, Eleusin indica; conditions: for Plant response rating, Goosegrass: scale 0 to 100, 0 no effect, 100 complete control
# Outline: (§2)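 Seeds were planted and treated preemergence with test chemical in a non-phytotoxic solvent mixture containing surfactant. Postemergence applications of the same formulation went onto plants 2 to 18 cm tall (1- to 4-leaf stage). A dash marks no test result.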
# [6] = system: annual bluegrass; assay: Test F preemergence test; format: in vivo, Poa annua; conditions: scale 0 to 100; for Bluegrass plant response rating: 62 g ai/ha
# Outline: as §1
# [7] = system: common groundsel; assay: Test F preemergence test; format: in vivo, Senecio vulgaris; conditions: scale 0 to 100; for Groundsel plant response rating: 62 g ai/ha
# From the text: (§3) Seeds of plant species selected from bermudagrass (Cynodon dactylon), Surinam grass (Brachiaria decumbens), large crabgrass (Digitaria sanguinalis), green foxtail (Setaria viridis), goosegrass (Eleusine indica), johnsongrass (Sorghum halepense), kochia (Kochia scoparia), pitted morningglory (Ipomoea lacunosa), purple nutsedge (Cyperus rotundus), common ragweed (Ambrosia elation), mustard (Brassica nigra), guineagrass (Panicum maximum), […] (Paspalum dilatatum), barnyardgrass (Echinochloa crus-galli), southern sandbur (Cenchrus echinatus), common sowthistle (Sonchus oleraceous), prickly […] spinosa), Italian ryegrass (Lolium multiflorum), common purslane (Portulaca oleracea), broadleaf signalgrass (Brachiaria platyphylla), common groundsel (Senecio vulgaris), common chickweed (Stellaria media), Virginia dayflower (Commelina virginica), annual bluegrass (Poa annua), naked crabgrass (Digitaria nuda), […] cochinchinensis), quackgrass (Elytrigia repens), Canada horseweed (Conyza canadensis), field bindweed (Convolvulus arvensis), […] (Bidens bipinnata), common mallow (Malva sylvestris), Russian thistle (Salsola kali), and sugarcane (Saccharum officinarum) were planted and treated preemergence with test chemicals formulated in a non-phytotoxic solvent mixture which included a surfactant. At a different time, sugarcane was treated with postemergence applications of some of the test chemicals formulated in the same manner. Plants were approximately 3- to 4-leaf stage for the postemergence treatments. Treated plants and controls were maintained in a greenhouse for 14 to 21 days, after which time all species were compared to controls and visually evaluated. […] A dash (-) response means no test result.
# [8] = system: common mallow; assay: Test F preemergence test; format: in vivo, Malva sylvestris; conditions: scale 0 to 100; for Mallow plant response rating: 62 g ai/ha
# From the text: as §3
# [9] = system: dallisgrass; assay: Test F preemergence test; format: in vivo, Paspalum dilatatum; conditions: scale 0 to 100; for Dallisgrass plant response rating: 62 g ai/ha
# Outline: as §1
# [10] = system: wheat; assay: Test A pre-/postemergence greenhouse test; format: in vivo, Triticum aestivum; conditions: for Wheat plant response rating: 0 to 100 scale; for Plant response rating, Wheat: 0 to 100 scale where 0 is no effect and 100 is complete control
# Outline: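 Greenhouse herbicide screen, pre- and postemergence in parallel. Soil: loam plus sand. Formulation: non-phytotoxic solvent mix with surfactant. Postemergence stage: one to two leaves, 2–10 cm height. Evaluation: visual injury, compared with untreated controls, about 10 days after treatment.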
# [11] = system: crabgrass; assay: Test C pre-/postemergence test; format: in vivo, Digitaria sanguinalis; conditions: for Plant response rating, Crabgrass, Large: scale 0 to 100, 0 no effect, 100 complete control
# Outline: as §2
# [12] = 31 g ai/ha, Preemergence, scale 0 to 100
# [13] = 62 g ai/ha, preemergence, scale 0 (no effect) to 100 (complete control)
# [14] = preemergence, 125 g ai/ha, scale 0 (no effect) to 100 (complete control)
# [15] = Postemergence, 125 g ai/ha, 0 is no effect, 100 is complete control
# [16] = Postemergence, 500 g ai/ha, 0 is no effect, 100 is complete control
# [17] = Preemergence, 125 g ai/ha, 0 no effect, 100 complete control
compound,measurement,setting,value
Cc1cc[n+]([O-])c([S+]([O-])Cc2c(C(F)(F)F)nn(C)c2OC(F)F)c1 (centres unmarked) [Compound 1],"Plant response rating, Kochia","[1]; 8 g ai/ha, preemergence",0
same,Kochia plant response rating,[1]; Preemergence,90
same,"Plant response rating, Kochia","[1]; Preemergence, 16 g ai/ha",0
same,"Plant response rating, Kochia","[1]; Preemergence, 31 g ai/ha",35
same,"Plant response rating, Black Mustard","[2]; 8 g ai/ha, preemergence",0
same,Black Mustard plant response rating,[2]; Preemergence,100
same,"Plant response rating, Black Mustard","[2]; Preemergence, 16 g ai/ha",0
same,"Plant response rating, Black Mustard","[2]; Preemergence, 31 g ai/ha",80
same,"Plant response rating, Quackgrass","[3]; 8 g ai/ha, preemergence",0
same,Quackgrass plant response rating,[3]; Preemergence,65
same,"Plant response rating, Quackgrass","[3]; Preemergence, 16 g ai/ha",35
same,"Plant response rating, Quackgrass","[3]; Preemergence, 31 g ai/ha",50
same,"Plant response rating, Foxtail, Green","[4]; 8 g ai/ha, preemergence",0
same,"Foxtail, Green plant response rating",[4]; Preemergence,100
same,"Plant response rating, Foxtail, Green","[4]; Preemergence, 16 g ai/ha",60
same,"Plant response rating, Foxtail, Green","[4]; Preemergence, 31 g ai/ha",80
same,Goosegrass plant response rating,[5]; [12],70
same,Goosegrass plant response rating,[5]; [13],100
same,"Plant response rating (0 to 100), Goosegrass","[5]; Postemergence, 31 g ai/ha",0
same,"Plant response rating, Goosegrass","[5]; Postemergence, 62 g ai/ha",0
same,"Plant response rating, Goosegrass","[5]; Postemergence, 125 g ai/ha",30
same,"Plant response rating, Goosegrass","[5]; Postemergence, 250 g ai/ha",80
same,"Plant response rating (0 to 100), Goosegrass","[5]; Preemergence, 250 g ai/ha",100
same,Goosegrass plant response rating,[5]; [14],100
same,"Plant response rating, Bluegrass","[6]; 8 g ai/ha, preemergence",0
same,Bluegrass plant response rating,[6]; Preemergence,75
same,"Plant response rating, Bluegrass","[6]; Preemergence, 16 g ai/ha",0
same,"Plant response rating, Bluegrass","[6]; Preemergence, 31 g ai/ha",25
same,"Plant response rating, Groundsel","[7]; 8 g ai/ha, preemergence",0
same,Groundsel plant response rating,[7]; Preemergence,35
same,"Plant response rating, Groundsel","[7]; Preemergence, 16 g ai/ha",20
same,"Plant response rating, Groundsel","[7]; Preemergence, 31 g ai/ha",35
same,"Plant response rating, Mallow","[8]; 8 g ai/ha, preemergence",0
same,Mallow plant response rating,[8]; Preemergence,100
same,"Plant response rating, Mallow","[8]; Preemergence, 16 g ai/ha",0
same,"Plant response rating, Mallow","[8]; Preemergence, 31 g ai/ha",70
same,"Plant response rating, Dallisgrass","[9]; 8 g ai/ha, preemergence",0
same,Dallisgrass plant response rating,[9]; Preemergence,50
same,"Plant response rating, Dallisgrass","[9]; Preemergence, 16 g ai/ha",0
same,"Plant response rating, Dallisgrass","[9]; Preemergence, 31 g ai/ha",20
same,Wheat plant response rating,[10]; [15],70
same,Wheat plant response rating,[10]; [16],70
same,Wheat plant response rating,[10]; [17],60
same,"Plant response rating, Wheat","[10]; Preemergence, 500 g ai/ha",90
same,"Crabgrass, Large plant response rating",[11]; [12],0
same,"Crabgrass, Large plant response rating",[11]; [13],80
same,"Plant response rating (0 to 100), Crabgrass, Large","[11]; Postemergence, 31 g ai/ha",10
same,"Plant response rating, Crabgrass, Large","[11]; Postemergence, 62 g ai/ha",30
same,"Plant response rating, Crabgrass, Large","[11]; Postemergence, 125 g ai/ha",50
same,"Plant response rating, Crabgrass, Large","[11]; Postemergence, 250 g ai/ha",70
same,"Plant response rating (0 to 100), Crabgrass, Large","[11]; Preemergence, 250 g ai/ha",100
same,"Crabgrass, Large plant response rating",[11]; [14],100
Cc1cc[n+]([O-])c(S(=O)(=O)Cc2c(C(F)(F)F)nn(C)c2OC(F)F)c1 [Compound 2],"Plant response rating, Kochia","[1]; 8 g ai/ha, preemergence",0
same,Kochia plant response rating,[1]; Preemergence,75
same,"Plant response rating, Kochia","[1]; Preemergence, 16 g ai/ha",0
same,"Plant response rating, Kochia","[1]; Preemergence, 31 g ai/ha",0
same,"Plant response rating, Black Mustard","[2]; 8 g ai/ha, preemergence",0
same,Black Mustard plant response rating,[2]; Preemergence,80
same,"Plant response rating, Black Mustard","[2]; Preemergence, 16 g ai/ha",25
same,"Plant response rating, Black Mustard","[2]; Preemergence, 31 g ai/ha",80
same,"Plant response rating, Quackgrass","[3]; 8 g ai/ha, preemergence",0
same,Quackgrass plant response rating,[3]; Preemergence,60
same,"Plant response rating, Quackgrass","[3]; Preemergence, 16 g ai/ha",0
same,"Plant response rating, Quackgrass","[3]; Preemergence, 31 g ai/ha",20
same,"Plant response rating, Foxtail, Green","[4]; 8 g ai/ha, preemergence",0
same,"Foxtail, Green plant response rating",[4]; Preemergence,80
same,"Plant response rating, Foxtail, Green","[4]; Preemergence, 16 g ai/ha",20
same,"Plant response rating, Foxtail, Green","[4]; Preemergence, 31 g ai/ha",65
same,Goosegrass plant response rating,[5]; [12],80
same,Goosegrass plant response rating,[5]; [13],100
same,"Plant response rating (0 to 100), Goosegrass","[5]; Postemergence, 31 g ai/ha",0
same,"Plant response rating, Goosegrass","[5]; Postemergence, 62 g ai/ha",0
same,"Plant response rating, Goosegrass","[5]; Postemergence, 125 g ai/ha",0
same,"Plant response rating, Goosegrass","[5]; Postemergence, 250 g ai/ha",0
same,"Plant response rating (0 to 100), Goosegrass","[5]; Preemergence, 250 g ai/ha",100
same,Goosegrass plant response rating,[5]; [14],100
same,"Plant response rating, Bluegrass","[6]; 8 g ai/ha, preemergence",0
same,Bluegrass plant response rating,[6]; Preemergence,25
same,"Plant response rating, Bluegrass","[6]; Preemergence, 16 g ai/ha",0
same,"Plant response rating, Bluegrass","[6]; Preemergence, 31 g ai/ha",15
same,"Plant response rating, Groundsel","[7]; 8 g ai/ha, preemergence",0
same,Groundsel plant response rating,[7]; Preemergence,50
same,"Plant response rating, Groundsel","[7]; Preemergence, 16 g ai/ha",0
same,"Plant response rating, Groundsel","[7]; Preemergence, 31 g ai/ha",50
same,"Plant response rating, Mallow","[8]; 8 g ai/ha, preemergence",0
same,Mallow plant response rating,[8]; Preemergence,35
same,"Plant response rating, Mallow","[8]; Preemergence, 16 g ai/ha",0
same,"Plant response rating, Mallow","[8]; Preemergence, 31 g ai/ha",0
same,"Plant response rating, Dallisgrass","[9]; 8 g ai/ha, preemergence",0
same,Dallisgrass plant response rating,[9]; Preemergence,65
same,"Plant response rating, Dallisgrass","[9]; Preemergence, 16 g ai/ha",0
same,"Plant response rating, Dallisgrass","[9]; Preemergence, 31 g ai/ha",10
same,Wheat plant response rating,[10]; [15],60
same,Wheat plant response rating,[10]; [16],70
same,Wheat plant response rating,[10]; [17],40
same,"Plant response rating, Wheat","[10]; Preemergence, 500 g ai/ha",70
same,"Crabgrass, Large plant response rating",[11]; [12],70
same,"Crabgrass, Large plant response rating",[11]; [13],100
same,"Plant response rating (0 to 100), Crabgrass, Large","[11]; Postemergence, 31 g ai/ha",0
same,"Plant response rating, Crabgrass, Large","[11]; Postemergence, 62 g ai/ha",0
same,"Plant response rating, Crabgrass, Large","[11]; Postemergence, 125 g ai/ha",0
same,"Plant response rating, Crabgrass, Large","[11]; Postemergence, 250 g ai/ha",40
same,"Plant response rating (0 to 100), Crabgrass, Large","[11]; Preemergence, 250 g ai/ha",100
same,"Crabgrass, Large plant response rating",[11]; [14],100
